Measured values reported in BigSolDB 2.1.

What does the source list for `CC(=O)N[C@@H](Cc1ccc(O)cc1)C(=O)O`?
solubility (mole fraction) (in acetone, 283.15 K): 0.106; solubility (mole fraction) (in acetone, 288.15 K): 0.116; solubility (mole fraction) (in acetone, 293.15 K): 0.132; solubility (mole fraction) (in acetone, 298.15 K): 0.136; solubility (mole fraction) (in acetone, 303.15 K): 0.145; solubility (mole fraction) (in acetone, 308.15 K): 0.152; solubility (mole fraction) (in acetone, 313.15 K): 0.166; solubility (mole fraction) (in acetone, 318.15 K): 0.181; solubility (mole fraction) (in acetone, 323.15 K): 0.197; solubility (mole fraction) (in acetonitrile, 283.15 K): 0.00301; solubility (mole fraction) (in acetonitrile, 288.15 K): 0.00353; solubility (mole fraction) (in acetonitrile, 293.15 K): 0.00436; solubility (mole fraction) (in acetonitrile, 298.15 K): 0.00526; solubility (mole fraction) (in acetonitrile, 303.15 K): 0.0064; solubility (mole fraction) (in acetonitrile, 308.15 K): 0.00795; solubility (mole fraction) (in acetonitrile, 313.15 K): 0.00988; solubility (mole fraction) (in acetonitrile, 318.15 K): 0.0129; solubility (mole fraction) (in acetonitrile, 323.15 K): 0.017; solubility (mole fraction) (in dimethyl carbonate, 283.15 K): 0.00114; solubility (mole fraction) (in dimethyl carbonate, 288.15 K): 0.00122; solubility (mole fraction) (in dimethyl carbonate, 293.15 K): 0.00127; solubility (mole fraction) (in dimethyl carbonate, 298.15 K): 0.0015; solubility (mole fraction) (in dimethyl carbonate, 303.15 K): 0.00224; solubility (mole fraction) (in dimethyl carbonate, 308.15 K): 0.00267; solubility (mole fraction) (in dimethyl carbonate, 313.15 K): 0.00307; solubility (mole fraction) (in dimethyl carbonate, 318.15 K): 0.00373; solubility (mole fraction) (in dimethyl carbonate, 323.15 K): 0.00404; solubility (mole fraction) (in ethyl acetate, 283.15 K): 0.00383; solubility (mole fraction) (in ethyl acetate, 288.15 K): 0.00412; solubility (mole fraction) (in ethyl acetate, 293.15 K): 0.00477; solubility (mole fraction) (in ethyl acetate, 298.15 K): 0.00507; solubility (mole fraction) (in ethyl acetate, 303.15 K): 0.00577; solubility (mole fraction) (in ethyl acetate, 308.15 K): 0.00655; solubility (mole fraction) (in ethyl acetate, 313.15 K): 0.0073; solubility (mole fraction) (in ethyl acetate, 318.15 K): 0.00849; solubility (mole fraction) (in ethyl acetate, 323.15 K): 0.0102; solubility (mole fraction) (in isobutanol, 283.15 K): 0.0349; solubility (mole fraction) (in isobutanol, 288.15 K): 0.0378; solubility (mole fraction) (in isobutanol, 293.15 K): 0.0468; solubility (mole fraction) (in isobutanol, 298.15 K): 0.0522; solubility (mole fraction) (in isobutanol, 303.15 K): 0.06; solubility (mole fraction) (in isobutanol, 308.15 K): 0.0683; solubility (mole fraction) (in isobutanol, 313.15 K): 0.0777; solubility (mole fraction) (in isobutanol, 318.15 K): 0.0853; solubility (mole fraction) (in isobutanol, 323.15 K): 0.0973; solubility (mole fraction) (in isopentanol, 283.15 K): 0.0363; solubility (mole fraction) (in isopentanol, 288.15 K): 0.0394; solubility (mole fraction) (in isopentanol, 293.15 K): 0.0487; solubility (mole fraction) (in isopentanol, 298.15 K): 0.05; solubility (mole fraction) (in isopentanol, 303.15 K): 0.0568; solubility (mole fraction) (in isopentanol, 308.15 K): 0.0634; solubility (mole fraction) (in isopentanol, 313.15 K): 0.0635; solubility (mole fraction) (in isopentanol, 318.15 K): 0.0749; solubility (mole fraction) (in isopentanol, 323.15 K): 0.0807; solubility (mole fraction) (in isopropanol, 283.15 K): 0.0772; solubility (mole fraction) (in isopropanol, 288.15 K): 0.0942; solubility (mole fraction) (in isopropanol, 293.15 K): 0.105; solubility (mole fraction) (in isopropanol, 298.15 K): 0.111; solubility (mole fraction) (in isopropanol, 303.15 K): 0.122; solubility (mole fraction) (in isopropanol, 308.15 K): 0.134; solubility (mole fraction) (in isopropanol, 313.15 K): 0.148; solubility (mole fraction) (in isopropanol, 318.15 K): 0.159; solubility (mole fraction) (in isopropanol, 323.15 K): 0.171; solubility (mole fraction) (in methyl acetate, 283.15 K): 0.00475; solubility (mole fraction) (in methyl acetate, 288.15 K): 0.00537; solubility (mole fraction) (in methyl acetate, 293.15 K): 0.00621; solubility (mole fraction) (in methyl acetate, 298.15 K): 0.00723; solubility (mole fraction) (in methyl acetate, 303.15 K): 0.0085; solubility (mole fraction) (in methyl acetate, 308.15 K): 0.00995; solubility (mole fraction) (in methyl acetate, 313.15 K): 0.0115; solubility (mole fraction) (in methyl acetate, 318.15 K): 0.0139; solubility (mole fraction) (in methyl acetate, 323.15 K): 0.0162; solubility (mole fraction) (in n-butanol, 283.15 K): 0.0529; solubility (mole fraction) (in n-butanol, 288.15 K): 0.058; solubility (mole fraction) (in n-butanol, 293.15 K): 0.0653; solubility (mole fraction) (in n-butanol, 298.15 K): 0.0715; solubility (mole fraction) (in n-butanol, 303.15 K): 0.0789; solubility (mole fraction) (in n-butanol, 308.15 K): 0.0892; solubility (mole fraction) (in n-butanol, 313.15 K): 0.0911; solubility (mole fraction) (in n-butanol, 318.15 K): 0.0979; solubility (mole fraction) (in n-butanol, 323.15 K): 0.108; solubility (mole fraction) (in n-butyl acetate, 283.15 K): 0.00136; solubility (mole fraction) (in n-butyl acetate, 288.15 K): 0.00179; solubility (mole fraction) (in n-butyl acetate, 293.15 K): 0.00214; solubility (mole fraction) (in n-butyl acetate, 298.15 K): 0.00252; solubility (mole fraction) (in n-butyl acetate, 303.15 K): 0.003; solubility (mole fraction) (in n-butyl acetate, 308.15 K): 0.00351; solubility (mole fraction) (in n-butyl acetate, 313.15 K): 0.00388; solubility (mole fraction) (in n-butyl acetate, 318.15 K): 0.00413; solubility (mole fraction) (in n-butyl acetate, 323.15 K): 0.00435; solubility (mole fraction) (in n-propyl acetate, 283.15 K): 0.00163; solubility (mole fraction) (in n-propyl acetate, 288.15 K): 0.00185; solubility (mole fraction) (in n-propyl acetate, 293.15 K): 0.00232; solubility (mole fraction) (in n-propyl acetate, 298.15 K): 0.00261; solubility (mole fraction) (in n-propyl acetate, 303.15 K): 0.00289; solubility (mole fraction) (in n-propyl acetate, 308.15 K): 0.00366; solubility (mole fraction) (in n-propyl acetate, 313.15 K): 0.0041; solubility (mole fraction) (in n-propyl acetate, 318.15 K): 0.00509; solubility (mole fraction) (in n-propyl acetate, 323.15 K): 0.00537; solubility (mole fraction) (in sec-butanol, 283.15 K): 0.08; solubility (mole fraction) (in sec-butanol, 288.15 K): 0.0885; solubility (mole fraction) (in sec-butanol, 293.15 K): 0.0967; solubility (mole fraction) (in sec-butanol, 298.15 K): 0.103; solubility (mole fraction) (in sec-butanol, 303.15 K): 0.113; solubility (mole fraction) (in sec-butanol, 308.15 K): 0.125; solubility (mole fraction) (in sec-butanol, 313.15 K): 0.137; solubility (mole fraction) (in sec-butanol, 318.15 K): 0.146; solubility (mole fraction) (in sec-butanol, 323.15 K): 0.159; solubility (mole fraction) (in water, 283.15 K): 0.00875; solubility (mole fraction) (in water, 288.15 K): 0.00935; solubility (mole fraction) (in water, 293.15 K): 0.0115; solubility (mole fraction) (in water, 298.15 K): 0.0154; solubility (mole fraction) (in water, 303.15 K): 0.021; solubility (mole fraction) (in water, 308.15 K): 0.0292; solubility (mole fraction) (in water, 313.15 K): 0.0459; solubility (mole fraction) (in water, 318.15 K): 0.0726; solubility (mole fraction) (in water, 323.15 K): 0.106
